Entries after “also recorded” stand apart in the source; their conditions may differ. Read-outs that look alike come from different tables or passages of the source.
Columns and labels:
[1] = MTT cell viability assay in non-infected Huh-7.5 cells; conditions: human
[2] = biological target: T1, β-1,4GalT (Bos taurus, UniProt P08037); assay: Bovine milk β-1,4GalT I assay (RP-HPLC, fluorescence); format: biochemical; conditions: for ability to inhibit β-1,4GalT activity: 0.8 mM
T1 construct: purchased; host or cells: bovine milk
T1 sequence (P08037 78-402 limits assumed): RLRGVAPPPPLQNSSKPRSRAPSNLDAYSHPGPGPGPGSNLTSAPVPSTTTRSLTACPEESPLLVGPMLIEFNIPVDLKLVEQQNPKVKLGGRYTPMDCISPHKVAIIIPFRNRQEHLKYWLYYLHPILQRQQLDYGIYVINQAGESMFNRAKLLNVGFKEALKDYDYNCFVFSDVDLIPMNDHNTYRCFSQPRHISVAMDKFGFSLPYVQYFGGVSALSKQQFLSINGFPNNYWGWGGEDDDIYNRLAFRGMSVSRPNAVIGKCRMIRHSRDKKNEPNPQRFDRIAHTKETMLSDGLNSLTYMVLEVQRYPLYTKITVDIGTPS

[3] = test system: classical swine fever virus (CSFV)
[4] = in vitro; conditions: swine
[5] = test system: classical swine fever virus (CSFV); assay: microbe, parasite or virus in culture
[6] = test system: HCVcc (Jc1/JFH genotype 2a); assay: HCVcc pseudo-plaque reduction assay (IPMA) in Huh-7.5 cells; conditions: for SI (CC50/IC50): HCV (Huh-7.5 cells); for IC50: Hepatitis C virus, Huh7.5
[7] = test system: viral genome replication; conditions: cited from earlier work
[8] = test system: classical swine fever virus (CSFV); conditions: cited from earlier work
[9] = test system: Huh-7.5 cells; conditions: cited from earlier work
[10] = test system: HCVcc (Jc1/JFH genotype 2a); conditions: cited from earlier work
[11] = test system: swine kidney (SK6) cells; conditions: cited from earlier work
[12] = test system: Huh-7.5 cells; assay: MTT cell viability assay in non-infected Huh-7.5 cells; conditions: concentration reducing cell viability by 50%, mean ± S.D.
[13] = test system: HCVcc genotype 2a JFH-1 strain; assay: SEAP reporter assay in Huh7-J20 cells, three infection models (time-of-drug addition); format: cell-based, hepatitis C virus; conditions: SEAP level; for effect on virus entry (Model 1): 1 h pre-treatment + 3 h infection with compound, then 72 h without; for antiviral activity in post-viral entry model (Model 3): compound added after 3 h infection for 72 h; for antiviral activity in full life cycle (Model 2): compound present before, during and 72 h after infection
[14] = test system: Huh7-J17 cells; conditions: human
[15] = test system: HCV replication (Huh7-J17 replicon); assay: HCV replicon Huh7-J17 luciferase assay; format: cell-based; conditions: Hepatitis C virus; Huh7-J17 replicon cells, 72 h; read-out: IC50 (inhibition of HCV RNA replication, luciferase activity)
[16] = test system: swine kidney (SK6) cells
[17] = in vitro; conditions: human
[18] = test system: HCV viral RNA (NS5B gene); format: cell-based, hepatitis C virus

SMILES | CC50 [1] [µM] | SI (CC50/IC50) [3] | CC50 [4] [µM] | IC50 [5] [µM] | SI (CC50/IC50) [6] | IC50 [6] [µM] | further results
O=C(Nc1ccc(S[C@@H]2O[C@H](CO)[C@H](O)[C@H](O)[C@H]2O)cc1)[C@H]1O[C@@H](n2ccc(=O)[nH]c2=O)[C@H](O)[C@@H]1O [Compound 15] | 460 ± 9.3 | 1.1 | 278 ± 4.3 | 257 ± 6.9 | 1.0 | 454 ± 9.8 | ability to inhibit β-1,4GalT activity [2]: demonstrated the ability of β-1,4GalT inhibition; reduction of enzyme activity ([2]; maximum test concentration of 0.8 mM): 10%
CC(=O)OC[C@H]1O[C@@H](Sc2ccc(NC(=O)[C@H]3O[C@@H](n4ccc(=O)[nH]c4=O)[C@H](O[Si](C)(C)C(C)(C)C)[C@@H]3O[Si](C)(C)C(C)(C)C)cn2)[C@H](OC(C)=O)[C@@H](OC(C)=O)[C@H]1OC(C)=O [II] |  |  |  |  |  |  | reduction of viral genome replication [7]: up to 90%; IC50 [8]: 6 ± 0.4 µM; SI (CC50/IC50) [8]: 25.2; CC50 [9]: 173 ± 3.2 µM; IC50 [10]: 7 ± 0.4 µM; SI (CC50/IC50) [10]: 24.7; CC50 [11]: 151 ± 3.1 µM
CC(C)OC(=O)[C@H](C)N[P@](=O)(OC[C@H]1O[C@@H](n2ccc(=O)[nH]c2=O)[C@](C)(F)[C@@H]1O)Oc1ccccc1 [SOFOSBUVIR, sofosbuvir, reference compound] |  |  |  |  | 119.2 | 0.26 ± 0.02 | CC50 [12]: 31 ± 1.2 µM; effect on virus entry (Model 1) [13]: no effect on virus entry; antiviral activity in post-viral entry model (Model 3) [13]: exerts its antiviral activity effect; antiviral activity in full life cycle (Model 2) [13]: exerts its antiviral activity effect; CC50 [14]: 23.5 µM; IC50 [15]: 0.028 µM
CC(=O)OC[C@H]1O[C@@H](Sc2ccc(NC(=O)[C@H]3O[C@@H](n4ccc(=O)[nH]c4=O)[C@@H]4OC(C)(C)O[C@@H]43)cc2)[C@H](OC(C)=O)[C@@H](OC(C)=O)[C@@H]1OC(C)=O [Compound 10] | 258 ± 6.2 | 2.2 | 326 ± 11.2 | 149 ± 6.1 | 1.7 | 154 ± 2.8 | 
CC(=O)OC[C@H]1O[C@@H](Sc2ccc(NC(=O)[C@H]3O[C@@H](n4ccc(=O)[nH]c4=O)[C@@H]4OC(C)(C)O[C@@H]43)cc2)[C@H](OC(C)=O)[C@@H](OC(C)=O)[C@H]1OC(C)=O [Compound 11] | 272 ± 4.5 | 1.6 | 340 ± 9.1 | 217 ± 3.9 | 1.6 | 167 ± 3.1 | 
CC(=O)OC[C@H]1O[C@@H](Sc2ccc(NC(=O)[C@H]3O[C@@H](n4ccc(=O)[nH]c4=O)[C@H](O[Si](C)(C)C(C)(C)C)[C@@H]3O[Si](C)(C)C(C)(C)C)cc2)[C@H](OC(C)=O)[C@@H](OC(C)=O)[C@H]1OC(C)=O [Compound 13] | 14 ± 0.9 | 2.0 | 49 ± 3.5 | 25 ± 0.9 | 1.9 | 7.4 ± 0.2 | cytotoxicity in words [16]: relatively toxic
CC(=O)OC[C@H]1O[C@@H](Sc2ccc(NC(=O)CCC(=O)OC[C@H]3O[C@@H](n4ccc(=O)[nH]c4=O)[C@H](O[Si](C)(C)C(C)(C)C)[C@@H]3O[Si](C)(C)C(C)(C)C)cc2)[C@H](OC(C)=O)[C@@H](OC(C)=O)[C@@H]1OC(C)=O [Compound 8] | 16 ± 1.1 | 9.3 | 42 ± 1.9 | 4.5 ± 0.3 | 4 | 4 ± 0.2 | cytotoxicity in words [16]: relatively toxic
O=C(Nc1ccc(S[C@@H]2O[C@H](CO)[C@@H](O)[C@H](O)[C@H]2O)cc1)[C@H]1O[C@@H](n2ccc(=O)[nH]c2=O)[C@H](O)[C@@H]1O [Compound 14] | > 475 | 1.1 | 256 | 241 ± 9.2 | >1.1 | 444 ± 12.4 | ability to inhibit β-1,4GalT activity [2]: demonstrated the ability of β-1,4GalT inhibition; also recorded: able to inhibit; IC50 ([2]; inhibitor 0.1–0.8 mM, UDP-Gal donor, esculine acceptor): 330 µM; CC50 ([16]; swine): 265 ± 8.6 µM
CC(=O)OC[C@H]1O[C@@H](Sc2ccc(NC(=O)[C@H]3O[C@@H](n4ccc(=O)[nH]c4=O)[C@H](O[Si](C)(C)C(C)(C)C)[C@@H]3O[Si](C)(C)C(C)(C)C)cn2)[C@H](OC(C)=O)[C@@H](OC(C)=O)[C@@H]1OC(C)=O [I] |  |  |  |  |  |  | reduction of viral genome replication [7]: up to 90%; IC50 [8]: 3 ± 0.1 µM; SI (CC50/IC50) [8]: 28.7; CC50 [9]: 135 ± 2.4 µM; IC50 [10]: 7 ± 0.7 µM; SI (CC50/IC50) [10]: 19.3; CC50 [11]: 86 ± 2.4 µM
CC(=O)OC[C@H]1O[C@@H](Sc2ccc(NC(=O)CCC(=O)OC[C@H]3O[C@@H](n4ccc(=O)[nH]c4=O)[C@H](O[Si](C)(C)C(C)(C)C)[C@@H]3O[Si](C)(C)C(C)(C)C)cc2)[C@H](OC(C)=O)[C@@H](OC(C)=O)[C@H]1OC(C)=O [Compound 9] | 257 ± 5.7 | 29.5 | 124 ± 6.8 | 4.2 ± 0.5 | 52.4 | 4.9 ± 0.3 | inhibition of CSFV propagation (size and number of pseudo-plaques) [3]: dose-dependent inhibition; effect on virus entry (Model 1) [13]: none of the tested compounds targeted virus entry; also recorded: neither compound affected viral entry; antiviral activity in post-viral entry model (Model 3) [13]: strong antiviral activity; antiviral activity in full life cycle (Model 2) [13]: strong antiviral activity; IC50 [15]: 4.18 µM; CC50 [17]: 133 µM; amount of viral RNA (NS5B RT-PCR) [18]: significant dose-dependent inhibition; inhibition of viral HCV replication (pseudo-plaques) ([6]; Huh-7.5 cells, 4–10 µM, Figure 2): dose-dependent inhibition
CC(=O)OC[C@H]1O[C@@H](Sc2ccc(NC(=O)[C@H]3O[C@@H](n4ccc(=O)[nH]c4=O)[C@H](O[Si](C)(C)C(C)(C)C)[C@@H]3O[Si](C)(C)C(C)(C)C)cc2)[C@H](OC(C)=O)[C@@H](OC(C)=O)[C@@H]1OC(C)=O [Compound 12] | 270 ± 2.9 |  | 56 ± 4.3 | 4 ± 0.1 | 20.0 | 13.5 ± 0.7 | effect on virus entry (Model 1) [13]: none of the tested compounds targeted virus entry; also recorded: neither compound affected viral entry; antiviral activity in post-viral entry model (Model 3) [13]: strong antiviral activity; antiviral activity in full life cycle (Model 2) [13]: strong antiviral activity; IC50 [15]: 4.24 µM; cytotoxicity in words [16]: relatively toxic; CC50 [17]: 130 µM; amount of viral RNA (NS5B RT-PCR) [18]: significant dose-dependent inhibition
CC(=O)OC[C@H]1O[C@@H](Sc2ccc(NC(=O)CCC(=O)OC[C@H]3O[C@@H](n4ccc(=O)[nH]c4=O)[C@@H]4OC(C)(C)O[C@@H]43)cc2)[C@H](OC(C)=O)[C@@H](OC(C)=O)[C@@H]1OC(C)=O [Compound 7] | 399 ± 11.4 | 1.1 | 103 ± 5.9 | 97 ± 2 | 1.4 | 281 ± 4.7 | 

From publication PMC6100568, “Novel Uridine Glycoconjugates, Derivatives of 4-Aminophenyl 1-Thioglycosides, as Potential Antiviral Compounds” (Molecules : A Journal of Synthetic Chemistry and Natural …, 2018)
